Columns and labels:
[1] = tested on: patients with severe sepsis; experiment: ETASS multicenter randomized controlled trial: mortality, prognosis and SOFA in severe sepsis; format: in vivo, human
Experimental: We did a prospective, controlled, single-blinded, multi-center randomized clinical trial, which was conducted in the ICUs of six tertiary, teaching hospitals. The ethics committee of the First Affiliated Hospital of Sun Yat-sen University approved the protocol (200815). Written informed consents were obtained from the patients or next of kin for patients unable to consent. The trial was registered with ClinicalTrials.gov, number NCT00711620.
From May 12, 2008 to Dec. 22, 2010 patients diagnosed with severe sepsis admitted to ICUs were enrolled in the trial. The criteria for severe sepsis were a modification of those defined by Bernard et al. (see Additional file 1).
To reduce the impact on the results from heterogeneity of severe sepsis and inter-hospital variation in patient sources as much as possible, stratification by investigative center in combination with computer-generated block randomization (block size=8) according to the sequence of recruitment was employed in the enrollment process. The method of randomization and block size were blinded until the data analysis was finished completely. Clinicians who enrolled the subjects were not involved in data collection. Eligible patients were randomly assigned in a 1:1 ratio in each hospital with four in each block assigned to receive the study drug and the other four to the control group after telephone verification through a randomization center. The allocation sequence was concealed from the researchers. To prevent advance knowledge of treatment assignment and subversion of the allocation sequence, trial entry sheet of the case report form (CRF) was filled out and informed consent was obtained before disclosing the unique participant number and the allocated group; the unique number generated could not be changed and deleted afterward. We used normal saline as placebo. Patients were blinded to the treatment assignments. All statistical analysis was done with masking maintained.
(§1) In the Tα1 group, patients received subcutaneous injections of 1.6 mg Tα1 (ZADAXIN™, SciClone Pharmaceuticals, Foster City, CA, USA) twice per day for five consecutive days, then once per day for two consecutive days. Prior to administration, the lyophilized powder is to be reconstituted with 1 ml of the provided diluent (sterile water for injection). After reconstitution, the final concentration of Tα1 is 1.6 mg/mL. In the control group, patients received subcutaneous injections of 1 mL normal saline twice per day for five consecutive days, then once per day for two consecutive days. According to trial protocol, therapy had to be started within 4 hrs after enrollment.
The treating physicians dictated patient care to current international guidelines, including adequate empiric antibiotic therapy based on current recommendations, ventilation regimen (pressure control mode), blood glucose control, resuscitation and hemodynamic support, organ support, sedation or analgesia as needed and adequate nutrition. Empirical antibiotic therapy was considered adequate when at least one effective drug was included in the empirical antibiotic treatment within the first 24 hrs of the admission to the ICU and the optimal dose and the correct route of administration were in accordance with medical standards and in ICU survivors without microbiologically detected microorganism in bloodstream or focus. When the empirical antibiotic therapy had to be changed after microbiological detection of microorganism, it was considered inadequate, whereas in non-survivors without microbiologically detected microorganism in bloodstream or focus it was considered not evaluable.
The primary efficacy end point was death from any cause and was assessed 28 days after the initiation of treatment assignment. […]

[2] = tested on: mHLA-DR (monocyte human leukocyte antigen-DR); experiment: ETASS trial: monocyte HLA-DR expression (% of positive monocytes); format: in vivo
Experimental: as §1
(§2) The primary efficacy end point was death from any cause and was assessed 28 days after the initiation of treatment assignment. Secondary outcomes included dynamic changes of Sequential Organ Failure Assessment (SOFA), CD 4+/CD8+ and monocyte human leukocyte antigen-DR (mHLA-DR) expression measured on day 0 (the day of enrollment), 3 and 7 in both groups. All mHLA-DR measurements were done in the center laboratory of the First Affiliated Hospital of Sun Yat-sen University. 1 ml unprocessed EDTA whole blood was stored on ice at once after drawing and was transferred to the center laboratory as soon as possible to guarantee measurement within 3 hrs after blood drawing. The method of measuring mHLA-DR was mentioned in our previous paper. Once patients were enrolled, data including demographic characteristics, microbiological findings (primary infection source and the identified microorganisms) and comorbidities were collected when available. The following clinical parameters were recorded on specific days after enrollment: on day 0, the severity as assessed by the Acute Physiology and Chronic Health Evaluation II (APACHE II); on day 0, 3, 7, SOFA, hematologic and biochemical findings, results of mHLA-DR, CD4+/CD8+ tests. The time of the first organ dysfunction was retrospectively estimated according to objective data such as blood gas analysis when the patient was enrolled.
(§3) Based on a previous study, a sample size of 334 patients was required to show a reduction in 28-day mortality rate from 50% to 35% by Tα1 treatment, with a two-sided test (a error=5%; power=80%). Considering a possible drop-out rate of 10%, the trial would need to enroll 368 patients in total. Demographic data, outcome data and other laboratory parameters were summarized by frequency for categorical variables and mean±standard deviation (SD) or median with interquartile range (IQR) for continuous variables. Proportions were compared with chi-square test or Fisher's exact test. Continuous variables were tested by means of t test with normal distribution or Wilcoxon rank-sum test with non-normal distribution. The comparison of primary outcome between two groups was performed by means of Cochran-Mantel-Haenszel test, in which patients were stratified on a number of baseline covariates such as mHLA-DR, scores of APACHE and SOFA, surgical and cancer history, sex and age. The corresponding relative risks (RRs) with 95% confidence intervals (Cis) were computed with logit-adjusted method. Kaplan-Meier estimates without adjustment for baseline covariates were used for survival time analysis, and log-rank tests for comparison. To estimate mean changes from baseline in laboratory parameters, linear mixed models for repeated measures were employed, taking into account the clustering of participating centers and repeated measurements within patients. This model included terms for baseline measurement, treatment group, visit, and treatment×visit interaction. Least-squares means with 95% CIs were reported. We also analyzed the efficacy parameters of the study drug in different prespecified subgroups. The heterogeneity of treatment effects among subgroups was assessed with use of interaction tests. […]

CD4+/CD8+ = experiment: ETASS trial: CD4+/CD8+ ratio; format: in vivo, human
Experimental: as §1, §2, §3

[3] = tested on: patients with severe sepsis; experiment: ETASS trial: safety and tolerability assessment; format: in vivo, human; details: for drug-related serious/severe adverse events: assessed by the investigator
Experimental: as §1
Safety and tolerability assessment of Tα1 (see Additional file 3) was based on the comparison of all available information obtained from the two groups with respect to detected outliers in laboratory safety data, drug-related serious adverse events (assessed by the investigator) and deterioration of organ and system function (assessed by the individual SOFA component scoring for respiratory, cardiovascular, hepatic, coagulation, renal and nervous systems that arose during the treatment).

[4] = 1.6 mg s.c. twice per day 5 days, then once per day 2 days, n = 181
[5] = during the 28-day study period, n = 181

## thymosin alpha 1 [Tα1]
[1]; [4]
  28-day mortality (death from any cause), number of patients: 47
  28-day mortality (death from any cause), rate: 26.0%
[1]; 1.6 mg s.c. twice per day 5 days, then once per day 2 days, n = 181, listed as Talpha1
  28-day mortality (death from any cause), rate: 26.0%
[1]; 1.6 mg s.c. twice per day 5 days, then once per day 2 days, n = 181, listed as TαI
  28-day mortality (death from any cause), rate: (26.0%)
[1]; 28 days, log rank P=0.049
  survival after enrollment vs control group (Kaplan-Meier, log rank): survived longer
[1]; Day 0 (day of enrollment)
  SOFA score, Mean (95% CI): 7.9
[1]; Day 3
  SOFA score, Mean (95% CI): 6.1
[1]; Day 7
  SOFA score, Mean (95% CI): 5.3
[1]; Tα1 group vs control group
  SOFA score ΔDay 3, between groups difference: −0.5
  SOFA score ΔDay 7, between groups difference: −0.7
[1]; day 3 compared with day 0
  SOFA score change ΔDay 3: −1.8
[1]; day 7 compared with day 0
  SOFA score change ΔDay 7: −2.5
[1]; [5]
  ICU-free days, Median (95% CI): 10.0 days
  Ventilation-free days, Median (95% CI): 18.0 days
[1]; in vivo
  relative risk of death in hospital compared to the control group: 0.73
[1]; n = 181
  Duration of ventilation, Median (IQR): 7.0
  ICU stay, Median (IQR): 11.0
  In-ICU mortality, number of patients: 35
  In-ICU mortality, rate: (19.3%)
  In-hospital mortality, number of patients: 52
  In-hospital mortality, rate: 28.7%
[1]; n = 181, listed as TαI
  In-hospital mortality, rate: (28.7%)
[1]; non-cancerous patients
  relative risk of death, non-cancerous patients: 0.91
[1]; non-stratified analysis
  relative risk of death within 28 days as compared to the control group: 0.74
[1]; patients with cancer
  relative risk of death compared to the control group, subgroup of patients with cancer: 0.46
[1]; stratified analyses
  primary end point in prespecified subgroups (APACHE II, SOFA, mHLA-DR, surgery or cancer history, sex, age): tended to improve outcome but without statistical significance
[1]; vs control group
  absolute reduction in 28-day mortality: 9.0%
  decreasing tendency within 7 days in SOFA score: seemed to favor the Tα1 group
  difference between the two groups in ICU mortality, ventilation-free days, ICU-free days, length of ICU stay and duration of mechanical ventilation: no significant difference
[2]; Day 0 (day of enrollment)
  mHLA-DR, Mean (95% CI): 51.8%
[2]; Day 3
  mHLA-DR, Mean (95% CI): 59.8%
[2]; Day 7
  mHLA-DR, Mean (95% CI): 68.9%
[2]; Tα1 group vs control group
  mean difference in mHLA-DR changes between the two groups, day 3: 3.9%
  mean difference in mHLA-DR changes between the two groups, day 7: 5.8%
[2]; day 3 compared with day 0
  mHLA-DR mean change from baseline ΔDay 3: 8.0%
[2]; day 7 compared with day 0
  mHLA-DR mean change from baseline ΔDay 7: 17.0%
CD4+/CD8+; 7 days
  ratio of CD4+/CD8+ during the 7 days: remained unchanged
CD4+/CD8+; Day 0 (day of enrollment)
  CD4+/CD8+, Mean (95% CI): 2.5
CD4+/CD8+; Day 3
  CD4+/CD8+, Mean (95% CI): 2.7
CD4+/CD8+; Day 7
  CD4+/CD8+, Mean (95% CI): 2.5
CD4+/CD8+; Tα1 group vs control group
  CD4+/CD8+ ΔDay 3, between groups difference: 0
  CD4+/CD8+ ΔDay 7, between groups difference: 0.1
CD4+/CD8+; day 3 compared with day 0
  CD4+/CD8+ change ΔDay 3: 0.3
CD4+/CD8+; day 7 compared with day 0
  CD4+/CD8+ change ΔDay 7: 0.1
[3]
  drug-related serious/severe adverse events: no Tα1-related severe adverse event (SAE) was reported
[3]; listed as Talpha1
  drug-related serious/severe adverse events: No serious drug-related adverse event
[3]; listed as Thymosin alpha 1
  drug-related serious/severe adverse events: not observed
[3]; during the treatment, n = 181
  patients with impairment (SOFA component score deterioration): Cardiovascular system, frequency in parentheses: (15.5)
  patients with impairment (SOFA component score deterioration): Cardiovascular system, number: 28
  patients with impairment (SOFA component score deterioration): Coagulation system, frequency in parentheses: (26.5)
  patients with impairment (SOFA component score deterioration): Coagulation system, number: 48
  patients with impairment (SOFA component score deterioration): Hepatic system, frequency in parentheses: (11.6)
  patients with impairment (SOFA component score deterioration): Hepatic system, number: 21
  patients with impairment (SOFA component score deterioration): Nervous system, frequency in parentheses: (7.7)
  patients with impairment (SOFA component score deterioration): Nervous system, number: 14
  patients with impairment (SOFA component score deterioration): Renal system, frequency in parentheses: (14.4)
  patients with impairment (SOFA component score deterioration): Renal system, number: 26
  patients with impairment (SOFA component score deterioration): Respiratory system, frequency in parentheses: (13.3)
  patients with impairment (SOFA component score deterioration): Respiratory system, number: 24
[3]; in vivo
  difference vs control in frequency of outlying laboratory values and all-cause organ or system impairment: no statistically significant differences
  treatment discontinuation due to intolerance or adverse events: no treatment was discontinued
[3]; n = 181
  patients with Hypoglycemia, frequency in parentheses: (4.4)
  patients with Hypoglycemia, number: 8
  patients with outlying values: ALT (U/L), frequency in parentheses: (21.0)
  patients with outlying values: ALT (U/L), number: 38
  patients with outlying values: AST (U/L), frequency in parentheses: (23.8)
  patients with outlying values: AST (U/L), number: 43
  patients with outlying values: Creatinine (mmol/L), frequency in parentheses: (9.9)
  patients with outlying values: Creatinine (mmol/L), number: 18
  patients with outlying values: Hemoglobin (g/L), frequency in parentheses: (14.9)
  patients with outlying values: Hemoglobin (g/L), number: 27
  patients with outlying values: Platelets 10^3/mm^3), frequency in parentheses: (37.0)
  patients with outlying values: Platelets 10^3/mm^3), number: 67
